Patent publication US12410164B2, “Heterocyclic compounds and medical use thereof” (FONDAZIONE TELETHON, priority 2018, dated 2025)

Molecular target: F508del-CFTR (Homo sapiens, UniProt P13569, DEL508-508)
Assay: Analysis of F508del-CFTR localization by immunofluorescence in CFBE41o− cells
Format: cell-based
Parameters: expressed in transfected cells; host or cells: CFBE41o- cells with expression of F508del-CFTR and HS-YFP (generated as in Sondo et al. 2011)
Settings: compound 10 μM plus VX-809 1 μM, 24 hr
Procedure: CFBE41o− cells were seeded in a 12-well μ-chamber (81201, Ibidi) at a density of 25.000 cells per well and treated with compounds for 24 hr. Cells were then rinsed with PBS and fixed by adding 100 μl per well of 10% neutral buffered formalin for 5 minutes at room temperature. After 3 washes with 300 μl of PBS, cells were permeabilized with PBS-Triton X-100 0.3% for 5 min, blocked with PBS-BSA 1% for 2 hr, and incubated overnight at 4° C. with 100 μl of primary antibody diluted in blocking solution. The CFTR antibody was ab570 mouse IgG1 (University of North Carolina at Chapel Hill, and Cystic Fibrosis Foundation Therapeutics, see Cui L, et al. J. Mol Biol 2007, 365, 981-994) diluted at 1:250. Following incubation with primary antibody, cells were rinsed three times with PBS and incubated with 100 μl of a solution of secondary goat anti-mouse Alexa Fluor-546 antibodies (Invitrogen A-11030) diluted in PBS-BSA 1% for 1 hour in the dark. After three further washes in PBS, cells were covered with mounting medium and coverslip, and then analysed using a laser-scanning confocal microscope SPE (Leica Microsystems).
As a second type of experiment, the localization of F508del-CFTR protein was evaluated by immunofluorescence. Cells were treated with compounds, then fixed and immunostained with antibodies against CFTR. Images were taken with a confocal microscope.

Chain of F508del-CFTR (P13569 with tags, fused parts or gaps DEL508-508): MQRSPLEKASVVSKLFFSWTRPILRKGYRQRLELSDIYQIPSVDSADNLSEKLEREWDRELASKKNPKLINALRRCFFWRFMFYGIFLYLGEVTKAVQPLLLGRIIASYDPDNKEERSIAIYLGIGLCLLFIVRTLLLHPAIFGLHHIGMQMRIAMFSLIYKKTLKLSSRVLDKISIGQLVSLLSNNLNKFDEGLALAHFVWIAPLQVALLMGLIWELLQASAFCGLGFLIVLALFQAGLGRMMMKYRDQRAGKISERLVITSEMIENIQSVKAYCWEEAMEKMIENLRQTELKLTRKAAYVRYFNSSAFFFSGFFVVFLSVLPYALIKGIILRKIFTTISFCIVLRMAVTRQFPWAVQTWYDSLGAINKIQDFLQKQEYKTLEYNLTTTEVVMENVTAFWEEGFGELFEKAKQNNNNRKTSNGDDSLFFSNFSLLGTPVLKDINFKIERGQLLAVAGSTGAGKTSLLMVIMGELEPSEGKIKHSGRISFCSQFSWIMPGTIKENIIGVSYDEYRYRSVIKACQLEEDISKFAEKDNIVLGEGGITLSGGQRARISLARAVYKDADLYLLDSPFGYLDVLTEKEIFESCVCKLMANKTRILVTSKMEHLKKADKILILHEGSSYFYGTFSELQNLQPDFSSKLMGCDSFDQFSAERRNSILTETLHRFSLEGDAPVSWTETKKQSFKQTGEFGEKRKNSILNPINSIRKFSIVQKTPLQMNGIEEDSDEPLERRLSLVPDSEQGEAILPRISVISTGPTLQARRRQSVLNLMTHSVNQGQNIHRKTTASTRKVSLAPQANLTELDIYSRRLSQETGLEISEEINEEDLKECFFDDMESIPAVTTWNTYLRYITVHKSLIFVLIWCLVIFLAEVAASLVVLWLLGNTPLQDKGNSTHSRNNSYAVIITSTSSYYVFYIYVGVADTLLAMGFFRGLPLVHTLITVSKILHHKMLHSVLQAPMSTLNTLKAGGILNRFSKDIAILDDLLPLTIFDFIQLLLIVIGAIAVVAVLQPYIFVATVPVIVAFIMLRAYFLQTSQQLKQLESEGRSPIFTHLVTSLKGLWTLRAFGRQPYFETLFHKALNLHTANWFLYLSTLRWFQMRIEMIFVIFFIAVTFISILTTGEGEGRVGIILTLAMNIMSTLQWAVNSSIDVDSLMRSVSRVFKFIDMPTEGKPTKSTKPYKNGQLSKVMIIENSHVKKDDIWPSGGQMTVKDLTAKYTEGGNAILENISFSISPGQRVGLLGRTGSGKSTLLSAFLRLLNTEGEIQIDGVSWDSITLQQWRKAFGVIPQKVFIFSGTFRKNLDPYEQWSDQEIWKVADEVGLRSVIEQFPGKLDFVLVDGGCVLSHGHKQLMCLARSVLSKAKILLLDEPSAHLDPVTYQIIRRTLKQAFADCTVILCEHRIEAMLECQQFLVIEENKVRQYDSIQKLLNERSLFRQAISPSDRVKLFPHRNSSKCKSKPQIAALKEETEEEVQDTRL

`CCOC(=O)c1c(Br)c2c(n1Cc1cccc(C)c1)-c1[nH]c(=O)c(S(=O)(=O)c3ccccc3)cc1CC2` [PP028, Ethyl 3-bromo 1-(3-methylbenzyl)-8-oxo-7-(phenylsulfonyl)-4,5,8,9-tetrahydro-1H-pyrrolo[3,2-h]quinoline-2-carboxylate] was tested, and the F508del-CFTR localization was “cause appearance of F508del-CFTR at the cell periphery”.
